What is called melting point is the temperature of the solid-liquid transition.

Each structure is given as a SMILES string.

Turning to `O=Cc1cc2c(cc1O)CCCO2`, the melting point lay within 97 to 100 °C.
With `CCc1c(S(=O)(=O)c2ccc(O)cc2)cnn1C`, the melting point lay in the range of 188 to 190 °C.
`CCOC(=O)C=Cc1ccc(OC(C)c2nc(-c3ccccc3)oc2C)c(OC)c1` (stereo not given) gave a melting point of 121 to 122 °C.
`CCCn1ncc(C(N)=O)c1N`: the melting point was in the range of 183 to 185 °C.
On to `COCc1cc(O)c2cccc(OC)c2n1`, for which the melting point is 193 to 195 °C.
Consider `O=C(OCc1ccccc1)N1CCC(c2nc(CO)c(-c3ccc(Cl)cc3)o2)CC1`, for which the melting point lay within 97 to 99 °C.
The molecule `O=C(Nc1cccnn1)N1CCN(c2ccnc(-c3ccc(F)cc3F)n2)CC1` showed a melting point of 200 to 201 °C.
The molecule `CN(C)Cc1nnc2n1-c1ccccc1C(c1ccccc1Cl)=NC2` yielded a melting point of 143 to 145 °C.
`COc1cc(C(=O)N2CCN(C(=O)OC(C)(C)C)C(CO)C2)cc(OC)c1OC` (stereo not given) registered a melting point of 119 to 120 °C.
In turn, `ONC(=S)CCc1ccc(F)cc1` returned a melting point of 115 to 116 °C.
With `COc1cc(NOC(C)=O)c(Cl)c(OC)c1`, the melting point is 117 to 118 °C.
In the case of `COC(=O)c1cc(Cl)cc(O)c1O`, the melting point amounted to 102 °C.
Molecule `C#CCC1CC2C3CCC(=O)C3(C)CCC2C2(C)CCC(=O)C=C12` (stereo not given) gave a melting point of 145 to 146 °C.
`CCN(c1nc(C)cc(C)n1)c1ccc(CC=NOC)cc1S(C)(=O)=O` registered a melting point of 151 to 154 °C.
For `CC(=O)Nc1ccc(C(O)CO)cn1` (stereo not given) the value was 184 to 185 °C; for `COc1ccc(N2C(=O)N(c3cccc(C#N)c3)c3nc(Nc4ccccc4)ncc3C2C)cc1` (stereo not given), 224 to 228 °C; for `COc1cc(C)c(C(=O)c2c(OC)ccc3ccccc23)c(OC)c1OC`, 72 °C.
For `CCS(=O)(=O)c1ccc(-c2nc(-c3nc4cc(OC)cc(OC)c4c(=O)[nH]3)ccc2OCCO)cc1` the value was 282 to 284 °C; for `CCOC(=O)CN=C1N[C@](C)(Cc2ccc(Br)cc2)C(=O)N1c1cc(Cl)cc(Cl)c1`, 103 to 105 °C.
In turn, `COc1cccc(-c2ccc3c(C(=O)Nc4onc(C)c4C)c(OC)ccc3c2)c1` gave a melting point of 124 °C.
Molecule `N#Cc1cc([N+](=O)[O-])c2sc(N3CCC4(CC3)OCCO4)nc(=O)c2c1` had a melting point of 217 to 220 °C.
Molecule `COC(=O)c1sc(Cl)c(Cl)c1NC(C)=O` registered a melting point of 136 to 138 °C.
The molecule `Nc1c(C(=O)c2ccncc2)[nH]c2cc(Cl)ccc12` registered a melting point of 266 to 267 °C.
With `CN(C)C(=O)c1c(-c2ccccc2)oc2c(CCl)cccc2c1=O`, the melting point was in the range of 202 to 203 °C.
`CN1C(=O)Nc2ccccc2C12NC(=O)N(COCc1ccccc1)C2=O` (stereo not given) had a melting point of 226 to 227 °C.
The result for `C=CCN1CCCC1CNC(C)=O` (stereo not given) reads 42 °C; that for `CC(C)(C)c1cc(C(C)(C)C)c2op(Cl)oc3c(C(C)(C)C)cc(C(C)(C)C)cc3c2c1`, 183 to 186 °C.
With `O=C(c1ccc(Br)cc1)c1ccc(O)cc1F`, the melting point was 62 to 63 °C.
For `COC(=O)c1ccc(NC(C)=O)cc1NC(=O)NC(C)C` the value was 153 to 155 °C.
As for `O=C(O)Cc1cccc(Oc2ccccc2Cl)c1[N+](=O)[O-]`, the melting point was 162 to 164 °C.
For `CCOC(=O)C1CCc2c(oc3ccc(C(N)=O)cc23)C1` (stereo not given) the value was 206 to 208 °C.
For the molecule `CC1Sc2nc3c(cnn3C)c(=O)n2C1C` (stereo not given), the melting point fell in the range of 168 to 170 °C.
Turning to `CCCCc1nc2c(N)nc3ccccc3c2n1CCN1C(=O)NC2CSC(CCCCC(N)=O)C21` (stereo not given), the melting point is 124 to 126 °C.
As for `C[C@@H]1S[C@@H](C(=O)Nc2ccc(CN3C(=O)COC3=O)cc2)Cc2cc3c(cc2C1=O)OCO3`, the melting point fell in the range of 240 to 242 °C.
The result for `CS(=O)(=O)c1ccc(-c2cnn(CC(F)(F)F)c(=O)c2Nc2cc(F)cc(F)c2F)cc1` reads 190 to 194 °C; that for `CC1=C(C(=O)OCc2ccccc2)C(c2cccc([N+](=O)[O-])c2)c2c(ccnc2OC(C)C)N1` (stereo not given), 158 to 160 °C; that for `CCCSc1ncc(CC(NC(=O)CC(C)C)C(=O)O)n1Cc1ccccc1Cl` (stereo not given), 151 to 154 °C.
For the molecule `COC(=O)NC(=N)N(C(=O)OC)c1c(Cc2ccccc2)c[nH]c1C(=O)OC`, the melting point fell in the range of 158 to 160 °C.
The result for `Cc1ccc(-c2cc(F)c(F)cc2-c2ccc(S(N)(=O)=O)cc2)cc1Cl` reads 139 to 140 °C; that for `Cc1ccc(Nc2nc(Cl)nc3ccccc23)cc1`, 198 to 199 °C.
The molecule `CC(=O)O[C@@H]1[C@H](OC(C)=O)[C@@H](C)O[C@H]1n1c(Cl)nc2c(Cl)c(Cl)c(Cl)cc21` yielded a melting point of 126 to 127 °C.
With `Cn1cncc1C(O)(c1ccc(F)cc1)c1ccc2c(c1)C(c1cccc(Cl)c1)n1nnnc1N2` (stereo not given), the melting point was 180 °C.
The result for `CCOC(=O)c1c(N)c(Br)cc2c1OCO2` reads 81 to 83 °C; that for `NNc1cc2ccccc2[nH]1`, 165 to 167 °C; that for `CCOC(=O)c1c2n(c3cc(Cl)c(Cl)cc3c1=O)CCS2`, 255 to 257 °C.
With `Cn1nc(C(F)(F)F)cc1Oc1cc(C#N)cc(Oc2cc(C(F)(F)F)nn2C)n1`, the melting point is 140 °C.
`Cc1cc2c(cc1C)N(C)C(=O)C(CC(=O)O)C2c1ccccc1Cl` (stereo not given) gave a melting point of 210 to 215 °C.
Turning to `COc1cc(OCCOc2ccc3ccccc3c2)cc(OC)c1C(C)=O`, the melting point was 97 to 98 °C.
With `CCOC=Nc1c(S(=O)C(F)(F)F)c(C#N)nn1-c1c(Cl)cc(C(F)(F)F)cc1Cl` (stereo not given), the melting point came to 63 °C.
The molecule `COc1ccc(-n2c(C)ccc2C)c(F)c1` returned a melting point of 67 to 69 °C.
In turn, `CNC(=O)c1ccc(N2CCN(Cc3cnc4c(c3)[nH]c(=O)n3cccc43)CC2)c(F)c1` returned a melting point of 288 to 294 °C.
The molecule `Cc1ccc([C@@H]2c3c(C)c(N4CCC(c5ccccc5)CC4)c(C)c(C)c3OC2(C)C)cc1` displayed a melting point of 137 to 140 °C.
In turn, `CCC(=O)N1CCC(NC(=O)Nc2c(Cl)cccc2Cl)CC1` had a melting point of 170 to 174 °C.
The molecule `Cc1ccn(-c2ccc(C(=O)c3cccc4c3Nc3ncccc3C(C)N4)c(C(F)(F)F)c2)n1` (stereo not given) returned a melting point of 188 to 190 °C.
The molecule `O=C1C2CCCN2C(=O)N1c1ccc([N+](=O)[O-])c2ccccc12` (stereo not given) returned a melting point of 215 to 217 °C.
`COc1ccc(-n2nnc3c(-c4ccc(C(F)(F)F)cc4F)ncnc32)cc1` showed a melting point of 175 to 177 °C.
`COC(=O)CCNC(=O)C1CCCN1C(=O)OC(C)(C)C` (stereo not given) had a melting point of 70 °C.
The result for `Cc1sc2[nH]c(=O)n(Cc3ccc(Cl)cc3)c(=O)c2c1C` reads 291 to 292 °C; that for `CC(C)(CSc1ccc(Cl)cc1)C(Cn1ccnc1)=NO`, 125 to 126 °C; that for `Cc1cccc(NC(=O)Cn2c3c(c4cc(Cl)c(Cl)cc42)CCN(C(=O)OC(C)(C)C)CC3)c1C`, 186 to 188 °C.
The result for `CN(C)CCN(C(=O)c1ccc([N+](=O)[O-])cc1Br)c1ccnc2cc3c(cc12)OCO3` reads 111 to 112 °C; that for `Nc1ccc(C(=O)Nc2ccc(-n3nc(C(F)(F)F)cc3C(F)(F)F)cc2)cc1`, more than 240 °C.
For `Cc1ccnc2c1nc(CO)n2C`, the melting point was more than 300 °C.
Turning to `COc1ccc2cccc(Br)c2c1`, the melting point fell in the range of 54 to 58 °C.
In the case of `COc1ccc(-c2c(C(=O)O)c(=O)n(C)c3ccc(Cl)cc23)cc1OC`, the melting point was in the range of 230 to 232 °C.
As for `C[Si](C)(C)C#Cc1ccc(C#N)cc1[N+](=O)[O-]`, the melting point was in the range of 81 to 82 °C.
For `CN(c1cccc2cc(-c3nc(CC(=O)O)cs3)[nH]c12)S(=O)(=O)c1cccs1`, the melting point was 214 to 215 °C.
Regarding `C=CCC(N)(Cc1ccccc1)C(N)=O` (stereo not given), the melting point was 120 to 121 °C.
`CCn1nc(C(C)(F)F)nc1Cc1ccc(-c2ccccc2-c2nnn[nH]2)nc1` yielded a melting point of 103 to 104 °C.
`Oc1ccc(N2CCN(Cc3nc4ccccc4s3)CC2)cc1` yielded a melting point of 175 to 176 °C.
As to `COc1ccc(CCN(C)c2cc(C)sc2CO)cc1OC`, the melting point turned out to be 149 °C.
For `O=S(=O)(Cc1ccccc1)c1ncc(Cl)cn1` the value was 122 to 124 °C; for `NS(=O)(=O)c1ccc(NN=C2C(=O)Nc3cc(Br)ccc32)cc1`, more than 250 °C; for `N#Cc1ccc(C=CCc2ccc(C#N)cc2)cc1`, 98 to 105 °C.
For `CC(C)(C)C(=O)CC(=O)NC1CCCCC1`, the melting point was 69 to 70 °C.
Consider `COc1cc2c(cc1O)CCC1C3=CCC(O)C3(C)CCC21` (stereo not given), for which the melting point fell in the range of 169 to 171 °C.
In turn, `C(=C\c1cc(/C=C/c2ccc3[nH]ccc3c2)n[nH]1)/c1ccc(OCc2ccccn2)cc1` returned a melting point of 95 to 102 °C.
For the molecule `CC(=O)Oc1cnccc1CCCOc1cccnc1Oc1cccc(Cl)c1`, the melting point was 107 to 126 °C.
Turning to `CNC(=O)c1ccc(-c2n[nH]c3c2Cc2ccccc2-3)cc1`, the melting point was 182 to 188 °C.
In turn, `Cc1nccc2[nH]c(=O)ccc12` displayed a melting point of 235 to 237 °C.
The result for `CCCC1(Br)Cc2c(c(C)c(C)c3oc(C(=O)O)cc23)C1=O` (stereo not given) reads 233 °C; that for `CCOC(=O)N1CCN(C2Cc3cc(Cl)ccc3Sc3ccccc32)CC1` (stereo not given), 92 to 93 °C; that for `CCOC(=O)C1=C(C)NC2=C(C(=O)OC2)C1c1cccs1` (stereo not given), 232 °C.
`CCOc1c(C(O)CCc2ccn(C)c2)c(OCCN2CCCCC2)c(OC)c2occc12` (stereo not given): the melting point was determined as 88 °C.
For `CCCCc1oc2cc(Br)ccc2c1CC1(c2ccc(OC)cc2)OCN=C1Br` (stereo not given), the melting point was 93 to 95 °C.
In the case of `CCCCc1nc(SC)c(C(=O)OCC)n1Cc1cccc(-c2ccc(S(=O)(=O)NC#N)cc2)c1`, the melting point was 120 °C.
`CC(=O)N[C@H]1C(O)O[C@H](CO)[C@@H](F)[C@@H]1O` (stereo not given in full) registered a melting point of 180 °C.
On to `CCOC(=O)c1ccc(-c2cnc3c(c2)N(Cc2c(F)ccc(F)c2Cl)C(=O)CN3)cc1`, for which the melting point lay in the range of 180 to 182 °C.
The result for `C=C(COC1CC2C3CCC4=CC(=O)CCC4(C)C3(F)C(O)CC2(C)C1(O)C(=O)CO)c1ccccc1` (stereo not given) reads 169 to 171 °C.
For `CN1C(c2ccc(Cl)cc2)=C(C#N)CC1C(F)(F)F` (stereo not given) the value was 158 to 160 °C.

(Values after a melting point compilation (Tetko et al.; mined from patent text by program, amines drawn as free bases though some values may be those of a salt).)
